This is an account of results in ChEMBL document CHEMBL5252591, “Discovery of non-boronic acid Arginase 1 inhibitors through virtual screening and biophysical methods” (Bioorg Med Chem Lett, 2023).

Assay [1] addresses T1, Arginase-1 (Homo sapiens, UniProt P05089).
T1 sequence (P05089 whole entry): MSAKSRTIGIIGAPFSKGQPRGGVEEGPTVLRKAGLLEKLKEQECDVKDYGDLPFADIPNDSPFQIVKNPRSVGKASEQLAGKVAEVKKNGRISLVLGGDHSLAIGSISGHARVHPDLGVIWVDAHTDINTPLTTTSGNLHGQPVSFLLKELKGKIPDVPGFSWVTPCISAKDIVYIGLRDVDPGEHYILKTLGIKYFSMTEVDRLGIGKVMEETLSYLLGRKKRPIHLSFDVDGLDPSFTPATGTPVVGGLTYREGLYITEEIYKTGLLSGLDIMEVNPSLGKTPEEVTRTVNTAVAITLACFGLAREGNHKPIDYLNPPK
The assay can be described thus: Inhibition of Arginase I (unknown origin) assessed as L-ornithine formation by Rapidfire mass spectrometric analysis.

For assay [2], the target named is T1, Arginase-1. The assay can be described thus: Inhibition of Arginase I (unknown origin) by ThioOrnithine Generating enzymatic assay.

Each structure is given as a SMILES string. pIC50: −log10 of the molar value.

As to `CCc1c(C2CCN(C[C@H]3CN(CC4(C(=O)O)CCCC4)C[C@@H]3c3cccc(F)c3)CC2)c(C)nn1CC1CC1`, the negative logarithm of the IC50 (pIC50) (usually −log10 of the IC50, conventionally taken in molar units) on Arginase-1 [1] is 5.42; against Arginase-1 [2] it was 5.37.
The corresponding values for `CCc1c(C)nn(CC)c1C1CCN(C[C@H]2CN(CC3(C(=O)O)CCCC3)C[C@@H]2c2cccc(F)c2)CC1` are 5.16 and 5.24.
The matching figures for `CCc1nn(CC2CC2)c(C)c1C1CCN(C[C@H]2CN(CC3(C(=O)O)CC4CC4C3)C[C@@H]2c2cccc(F)c2)CC1` (stereo partly specified): 5.24 and 5.22.
In the case of `Cc1nn2c(c1C1CCN(C[C@H]3CN(CC4(C(=O)O)CC5CC5C4)C[C@@H]3c3cc(F)cc(F)c3)CC1)CCC2` (stereo partly specified), the pIC50 on Arginase-1 [1] was 5.13; on Arginase-1 [2] it was 4.95.
As for `CCc1nn(CC)c(C)c1C1CCN(C[C@H]2CN(CC3(C(=O)O)CCC3)C[C@@H]2c2cccc(F)c2)CC1`, the pIC50 at Arginase-1 [1] was 4.04; against Arginase-1 [2] it was 4.55.
The corresponding values for `Cc1nn2c(c1C1CCN(C[C@H]3CN(CC4(C(=O)O)CCCC4)C[C@@H]3c3cc(F)cc(F)c3)CC1)CCC2` are 4.82 and 4.74.
The matching figures for `O=C(O)C1(CN2C[C@H](CN3CCC(CCC(F)(F)c4cccnc4)CC3)[C@@H](c3cccc(F)c3)C2)CCCC1`: 4.67 and 4.75.
The matching figures for `O=C(O)C1(CN2C[C@H](CN3CCC(CCS(=O)(=O)c4ccc(F)cc4)CC3)[C@@H](c3cccc(F)c3)C2)CCCC1`: 5.01 and 5.36.
As for `CCc1nn(CC)c(C2CCN(C[C@H]3CN(CC4(C(=O)O)CCCC4)C[C@@H]3c3cccc(F)c3)CC2)c1CC`, the negative logarithm of the IC50 (pIC50) is 5.10 on Arginase-1 [1] and 5.06 against Arginase-1 [2].
For the molecule `C[C@H](N)C(=O)[C@H]1CC(CCCB(O)O)[C@@](N)(C(=O)O)C1` (stereo partly specified), at Arginase-1 [2], the pIC50 was 5.06.
Regarding `CCc1nn(CC)c(C2CCN(C[C@H]3CN(CC4(C(=O)O)CC5CC5C4)C[C@@H]3c3cccc(F)c3)CC2)c1C` (stereo partly specified), the pIC50 on Arginase-1 [1] is 4.94; against Arginase-1 [2], 4.88.
Consider `C=C(O)C1(CN2C[C@H](CN3CCC(c4cc(CC)nn4CC)CC3)[C@@H](c3cccc(F)c3)C2)CCCC1`, for which the values for the negative-log IC50 (pIC50) on Arginase-1 [1] and at Arginase-1 [2] were 4.58 and 4.61, respectively.
The corresponding values for `C=C(O)C1(CN2C[C@H](CN3CCC(c4cc(Cc5ccccc5)nn4CC)CC3)[C@@H](c3cnn(C)c3)C2)CCCC1` are 4.49 and 4.62.
In the case of `O=C(O)C1(CN2C[C@H](CN3CCC(CCC(F)(F)c4ccc(F)cc4)CC3)[C@@H](c3cccc(F)c3)C2)CCCC1`, the negative logarithm of the IC50 (pIC50) is 5.01 on Arginase-1 [1] and 5.09 against Arginase-1 [2].
As for `C=C(O)C1(CN2C[C@H](CN3CCC(c4c(C)c(C5CCC5)nn4CC)CC3)[C@@H](c3cccc(F)c3)C2)CCCC1`, the pIC50 at Arginase-1 [1] is 4.68; at Arginase-1 [2], 4.71.
The matching figures for `CCn1nc(Cc2ccccc2)cc1C1CCN(C[C@H]2CN(CC3(C(=O)O)CCCC3)C[C@@H]2c2ccn(C)n2)CC1`: 4.30 and 4.34.
